Assay results as given in PMC10746543, “Design principles for cyclin K molecular glue degraders” (Nature Chemical Biology, 2023).
Several values for one entry are separate records, joined by “and”; a condition that tells them apart may be missing. Equal values may be shown once. Read-outs that look alike come from different tables or passages of the source.

Columns and labels:
HEK293T cells = test: Drug sensitivity assay (CellTiter-Glo viability) with or without MLN4924 pretreatment; type: cell-based, human; conditions: Supplementary Table 2
Summary of the method: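 First, cells (HEK293T–Cas9, 0.15 × 10^6 ml^−1) are exposed to DMSO or 100 nM MLN4924. Next, drugs follow at 2 h. Finally, CellTiter-Glo is read at day 3 and normalised to DMSO.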

CDK2–cyclin A = target: T1, CDK2–cyclin A (Homo sapiens, UniProt P24941); test: Lanthascreen kinase binding assay, CDK2; conditions: for Lanthascreen signal, sheet CDK2: raw replicates, experiment r36-r46
T1 construct: purchased Thermo Fisher
Procedure: (§1) Lanthascreen experiments were performed using commercially available reagents (Thermo Fisher) and according to the manufacturer’s instructions.

CDK12–cyclin K = CDK12–cyclin K (Homo sapiens, UniProt Q9NYV4); test: Lanthascreen kinase binding assay, CDK12; conditions: for Lanthascreen raw signal, sheet CDK12: series r37, duplicates
Sequence of CDK12–cyclin K (Q9NYV4 713-1052): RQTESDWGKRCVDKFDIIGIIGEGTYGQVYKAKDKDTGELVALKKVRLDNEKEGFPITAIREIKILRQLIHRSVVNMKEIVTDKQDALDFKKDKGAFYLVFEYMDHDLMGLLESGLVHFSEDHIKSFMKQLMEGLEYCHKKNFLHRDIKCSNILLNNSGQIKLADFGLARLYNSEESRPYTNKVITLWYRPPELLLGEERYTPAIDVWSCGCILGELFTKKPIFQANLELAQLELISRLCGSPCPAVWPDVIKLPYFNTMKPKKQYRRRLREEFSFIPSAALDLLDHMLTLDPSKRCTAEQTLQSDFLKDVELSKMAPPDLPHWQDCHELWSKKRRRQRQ
Sequence of CDK12–cyclin K (O75909 1-267 partner limits assumed): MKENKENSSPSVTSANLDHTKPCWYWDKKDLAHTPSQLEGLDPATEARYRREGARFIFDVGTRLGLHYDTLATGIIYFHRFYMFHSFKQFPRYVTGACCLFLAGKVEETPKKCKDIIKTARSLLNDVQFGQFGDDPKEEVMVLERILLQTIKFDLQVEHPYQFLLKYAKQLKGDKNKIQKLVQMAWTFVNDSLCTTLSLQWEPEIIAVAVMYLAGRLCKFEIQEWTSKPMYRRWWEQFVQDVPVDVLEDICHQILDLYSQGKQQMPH
Procedure: as §1

CDK9–cyclin T = target: T2, CDK9–cyclin T (Homo sapiens, UniProt P50750); test: Lanthascreen kinase binding assay, CDK9; conditions: for Lanthascreen TR-FRET signal (raw ratio), sheet CDK9: third titration set (r25), duplicates
T2 construct: purchased Thermo Fisher
T2 sequence (P50750 whole entry): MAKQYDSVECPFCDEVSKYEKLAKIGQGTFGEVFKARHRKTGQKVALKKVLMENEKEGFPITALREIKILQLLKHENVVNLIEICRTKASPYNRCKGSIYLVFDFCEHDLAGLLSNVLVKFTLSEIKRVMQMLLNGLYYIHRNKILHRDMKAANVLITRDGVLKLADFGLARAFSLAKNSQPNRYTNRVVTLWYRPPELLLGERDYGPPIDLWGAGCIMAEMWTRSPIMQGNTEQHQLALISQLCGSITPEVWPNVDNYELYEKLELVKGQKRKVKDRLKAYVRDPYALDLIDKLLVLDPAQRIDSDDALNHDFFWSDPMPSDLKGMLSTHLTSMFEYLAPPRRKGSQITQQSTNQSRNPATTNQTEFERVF
T2 sequence (O60563 whole entry partner): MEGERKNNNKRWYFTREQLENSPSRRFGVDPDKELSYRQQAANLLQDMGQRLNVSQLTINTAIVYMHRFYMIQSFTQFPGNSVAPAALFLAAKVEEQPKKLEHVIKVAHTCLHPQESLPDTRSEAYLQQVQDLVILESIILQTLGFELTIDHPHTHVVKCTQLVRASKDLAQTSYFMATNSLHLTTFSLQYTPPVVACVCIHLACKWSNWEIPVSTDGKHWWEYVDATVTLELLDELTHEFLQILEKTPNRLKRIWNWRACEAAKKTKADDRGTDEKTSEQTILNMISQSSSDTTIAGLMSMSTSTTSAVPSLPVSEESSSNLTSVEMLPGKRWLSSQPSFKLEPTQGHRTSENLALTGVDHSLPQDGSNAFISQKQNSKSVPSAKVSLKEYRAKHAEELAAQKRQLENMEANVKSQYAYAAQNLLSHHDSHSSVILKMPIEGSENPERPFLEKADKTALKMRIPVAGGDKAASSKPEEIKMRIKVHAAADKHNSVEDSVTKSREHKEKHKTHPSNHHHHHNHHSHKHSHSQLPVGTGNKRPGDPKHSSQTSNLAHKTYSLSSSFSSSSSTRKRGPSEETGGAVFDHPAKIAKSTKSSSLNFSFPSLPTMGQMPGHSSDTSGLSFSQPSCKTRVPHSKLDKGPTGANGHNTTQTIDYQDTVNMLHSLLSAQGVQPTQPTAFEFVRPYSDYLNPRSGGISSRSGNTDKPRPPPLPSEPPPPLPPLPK
Procedure: as §1

CDK12–cyclin K and DDB1 = target: T3, CDK12–cyclin K and DDB1 (Homo sapiens, UniProt Q16531+Q9NYV4, K965R); test: TR-FRET ternary complex formation assay (compound titration); type: binding
T3 construct: His6–CDK12 (a.a. 713–1,052); full-length or beta-propeller B domain deletion (ΔBPB: a.a. 396–705 deleted) constructs of His6–DDB1ΔBPB, StrepII–Avi–DDB1, or His6–Spy–DDB1; made in house; host or cells: Trichoplusia ni High Five insect cells (baculovirus)
T3 sequence (Q9NYV4 713-1052 K965R): as the sequence (Q9NYV4 713-1052) above, with K253R counted along it
T3 sequence (O75909 1-267 partner): as the sequence (O75909 1-267 partner limits assumed) above
T3 sequence (Q16531 whole entry): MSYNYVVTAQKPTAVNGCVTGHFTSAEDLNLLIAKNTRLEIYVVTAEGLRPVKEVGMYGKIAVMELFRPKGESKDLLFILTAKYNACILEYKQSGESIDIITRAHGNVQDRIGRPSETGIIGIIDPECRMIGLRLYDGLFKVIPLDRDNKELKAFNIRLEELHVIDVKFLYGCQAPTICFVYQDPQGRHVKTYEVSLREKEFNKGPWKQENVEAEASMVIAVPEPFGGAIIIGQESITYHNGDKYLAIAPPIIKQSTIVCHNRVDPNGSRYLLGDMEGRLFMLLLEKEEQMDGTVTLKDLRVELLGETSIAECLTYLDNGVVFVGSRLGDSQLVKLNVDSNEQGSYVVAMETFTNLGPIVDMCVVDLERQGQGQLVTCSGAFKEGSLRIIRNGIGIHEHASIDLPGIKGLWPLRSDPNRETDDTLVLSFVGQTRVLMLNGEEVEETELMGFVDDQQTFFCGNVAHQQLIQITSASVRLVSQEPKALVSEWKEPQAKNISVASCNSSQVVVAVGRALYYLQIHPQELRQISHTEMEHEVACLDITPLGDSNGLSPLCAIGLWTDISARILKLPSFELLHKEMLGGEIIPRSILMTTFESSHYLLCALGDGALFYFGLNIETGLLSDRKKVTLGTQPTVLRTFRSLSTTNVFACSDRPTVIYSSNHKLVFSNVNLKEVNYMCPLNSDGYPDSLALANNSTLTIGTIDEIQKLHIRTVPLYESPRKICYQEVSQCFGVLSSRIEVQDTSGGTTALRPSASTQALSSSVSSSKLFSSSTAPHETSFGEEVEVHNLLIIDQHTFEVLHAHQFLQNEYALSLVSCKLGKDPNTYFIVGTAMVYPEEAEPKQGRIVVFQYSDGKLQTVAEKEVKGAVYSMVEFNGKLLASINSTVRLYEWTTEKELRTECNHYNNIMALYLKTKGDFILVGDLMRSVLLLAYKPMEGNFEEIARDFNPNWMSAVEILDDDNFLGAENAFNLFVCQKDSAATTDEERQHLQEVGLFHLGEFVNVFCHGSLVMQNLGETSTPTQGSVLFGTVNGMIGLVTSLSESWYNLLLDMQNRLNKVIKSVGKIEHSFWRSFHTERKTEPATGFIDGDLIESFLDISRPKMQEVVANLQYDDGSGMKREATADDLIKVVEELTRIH
Summary of the method: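 Background fluorescence is reduced by reading 70 μs after excitation, and complex formation is followed as the 520:490 nm fluorescence ratio.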

[1] = system: cyclin K–eGFP degradation reporter; test: Cyclin K reporter stability analysis (dual-color cyclin K–eGFP reporter); type: cell-based, human; conditions: source data sheet correlations; read-out: DC50
Summary of the method: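 Cells (HEK293T–Cas9, reporter-expressing) at 1 × 10^6 ml^−1; 5 h compound or DMSO; flow cytometry; gMFI eGFP ÷ mCherry on round mCherry-positive events; normalized to 3 DMSO controls.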

Structure (SMILES): CC[C@H](CO)Nc1nc(NCc2nc3cc(Cl)c(Cl)cc3[nH]2)c2ncn(-c3cnn(C)c3)c2n1 [DS22]
- EC50 (HEK293T cells; Homo sapiens, HEK-293T, HEK293T viability, 72 h, compound alone, read-out: Cellular assays EC50): 935 nM
- Toxicity rescue (HEK293T cells; MLN4924-mediated cytotoxicity rescue, 10 µM used where n.d.): 66%
- Lanthascreen signal, sheet CDK2 (CDK2–cyclin A; Compound 0.038147 nM): 0.01361 and 0.01332
- Lanthascreen signal, sheet CDK2 (CDK2–cyclin A; Compound 0.152588 nM): 0.01367 and 0.01361
- Lanthascreen signal, sheet CDK2 (CDK2–cyclin A; Compound 0.610352 nM): 0.01456 and 0.01463
- Lanthascreen signal, sheet CDK2 (CDK2–cyclin A; Compound 9.76563 nM): 0.01461 and 0.01423
- Lanthascreen signal, sheet CDK2 (CDK2–cyclin A; Compound 39.0625 nM): 0.01375 and 0.01404
- Lanthascreen signal, sheet CDK2 (CDK2–cyclin A; Compound 156.25 nM): 0.01392 and 0.01367
- Lanthascreen signal, sheet CDK2 (CDK2–cyclin A; Compound 625 nM): 0.01433 and 0.01409
- Lanthascreen signal, sheet CDK2 (CDK2–cyclin A; Compound 2500 nM): 0.01378 and 0.01394
- Lanthascreen signal, sheet CDK2 (CDK2–cyclin A; Compound 10000 nM): 0.01296 and 0.01217
- IC50 (CDK2–cyclin A; Lanthascreen, average, Extended Data Fig. 8, read-out: CDK2 IC50): > 10000 nM
- IC50 (CDK2–cyclin A; Supplementary Table 2, read-out: Lanthascreen IC50 [nM] CDK2): > 10000 nM
- IC50 (CDK12–cyclin K; Supplementary Table 2, read-out: Lanthascreen IC50 [nM] CDK12): 1320 nM
- Lanthascreen raw signal, sheet CDK12 (CDK12–cyclin K; compound 0.038147 nM): 0.01422 and 0.01468
- Lanthascreen raw signal, sheet CDK12 (CDK12–cyclin K; compound 0.152588 nM): 0.01335 and 0.01357
- Lanthascreen raw signal, sheet CDK12 (CDK12–cyclin K; compound 0.610352 nM): 0.01416 and 0.01634
- Lanthascreen raw signal, sheet CDK12 (CDK12–cyclin K; compound 9.76563 nM): 0.01407 and 0.01436
- Lanthascreen raw signal, sheet CDK12 (CDK12–cyclin K; compound 39.0625 nM): 0.01347 and 0.01362
- Lanthascreen raw signal, sheet CDK12 (CDK12–cyclin K; compound 156.25 nM): 0.01258 and 0.01228
- Lanthascreen raw signal, sheet CDK12 (CDK12–cyclin K; compound 625 nM): 0.01036 and 0.01104
- Lanthascreen raw signal, sheet CDK12 (CDK12–cyclin K; compound 2500 nM): 0.007943 and 0.008192
- Lanthascreen raw signal, sheet CDK12 (CDK12–cyclin K; compound 10000 nM): 0.006259 and 0.005981
- IC50 (CDK9–cyclin T; Lanthascreen, average, Extended Data Fig. 8, read-out: CDK9 IC50): > 10000 nM
- IC50 (CDK9–cyclin T; Supplementary Table 2, read-out: Lanthascreen IC50 [nM] CDK9): > 10000 nM
- Lanthascreen TR-FRET signal (raw ratio), sheet CDK9 (CDK9–cyclin T; compound 0.038147 nM): 0.01967 and 0.01921
- Lanthascreen TR-FRET signal (raw ratio), sheet CDK9 (CDK9–cyclin T; compound 0.152588 nM): 0.02095 and 0.01844
- Lanthascreen TR-FRET signal (raw ratio), sheet CDK9 (CDK9–cyclin T; compound 0.610352 nM): 0.02014 and 0.01923
- Lanthascreen TR-FRET signal (raw ratio), sheet CDK9 (CDK9–cyclin T; compound 9.76563 nM): 0.02017 and 0.01981
- Lanthascreen TR-FRET signal (raw ratio), sheet CDK9 (CDK9–cyclin T; compound 39.0625 nM): 0.02067 and 0.01823
- Lanthascreen TR-FRET signal (raw ratio), sheet CDK9 (CDK9–cyclin T; compound 156.25 nM): 0.02063 and 0.01896
- Lanthascreen TR-FRET signal (raw ratio), sheet CDK9 (CDK9–cyclin T; compound 625 nM): 0.01918 and 0.01876
- Lanthascreen TR-FRET signal (raw ratio), sheet CDK9 (CDK9–cyclin T; compound 2500 nM): 0.01797 and 0.01674
- Lanthascreen TR-FRET signal (raw ratio), sheet CDK9 (CDK9–cyclin T; compound 10000 nM): 0.01641 and 0.01561
- TR-FRET signal at compound concentration 0.468 nM (CDK12–cyclin K and DDB1; compound concentration 0.468 nM, raw replicate titration data): 0.2612 and 0.2579 and 0.218 and 0.2096
- TR-FRET signal at compound concentration 2.16 nM (CDK12–cyclin K and DDB1; compound concentration 2.16 nM, raw replicate titration data): 0.3357 and 0.3419 and 0.2765 and 0.3174
- TR-FRET signal at compound concentration 3.6 nM (CDK12–cyclin K and DDB1; compound concentration 3.6 nM, raw replicate titration data): 0.4892 and 0.5148 and 0.5183 and 0.5347
- TR-FRET signal at compound concentration 7.92001 nM (CDK12–cyclin K and DDB1; compound concentration 7.92001 nM, raw replicate titration data): 0.8316 and 0.8843 and 0.9885 and 1.068
- TR-FRET signal at compound concentration 15.84 nM (CDK12–cyclin K and DDB1; compound concentration 15.84 nM, raw replicate titration data): 1.474 and 1.574 and 1.714 and 1.959
- TR-FRET signal at compound concentration 30.96 nM (CDK12–cyclin K and DDB1; compound concentration 30.96 nM, raw replicate titration data): 2.47 and 2.714 and 3.094 and 3.238
- TR-FRET signal at compound concentration 62.6401 nM (CDK12–cyclin K and DDB1; compound concentration 62.6401 nM, raw replicate titration data): 3.3967 and 3.4513 and 3.77 and 3.733
- TR-FRET signal at compound concentration 125.28 nM (CDK12–cyclin K and DDB1; compound concentration 125.28 nM, raw replicate titration data): 3.673 and 3.6963 and 3.89 and 3.859
- TR-FRET signal at compound concentration 244.8 nM (CDK12–cyclin K and DDB1; compound concentration 244.8 nM, raw replicate titration data): 3.796 and 3.869 and 3.911 and 3.923
- TR-FRET signal at compound concentration 993.601 nM (CDK12–cyclin K and DDB1; compound concentration 993.601 nM, raw replicate titration data): 3.806 and 3.925 and 3.935 and 3.945
- TR-FRET signal at compound concentration 2001.6 nM (CDK12–cyclin K and DDB1; compound concentration 2001.6 nM, raw replicate titration data): 3.846 and 3.958 and 4 and 4.014
- EC50 (CDK12–cyclin K and DDB1; in vitro complex formation, 50 nM CDK12–cyclin K, 100 nM DDB1, text and figures, read-out: TR-FRET EC50): 19 ± 1 nM
- EC50 (CDK12–cyclin K and DDB1; sheet MOESM7, read-out: log TR-FRET EC50 (converted)): 19.3 nM
- EC50 (CDK12–cyclin K and DDB1; source data sheet correlations, read-out: TR-FRET EC50): 19.3 nM
- DC50 [1]: 109 nM
